“And” between values parts separate entries of the source, which are not always exact repeats. Equal values may be shown once. “Also recorded” adds a separate entry of the source.
Key:
[1] = molecular target: T1, neuronal 5-HT2A receptor (5-HT2AR) (Mus musculus, UniProt P35363); test: Drug-induced Head Twitch Response (HTR) in mice; type: in vivo, C57BL/6-Elite mice; details: 1 mg/kg i.p., 15-to-30-minute window post-drug, relative to vehicle-treated control mice
T1 construct: HTR was measured in mice treated with a control and test compounds; tissue Charles River; host or cells: live C57BL/6-Elite mice (neuronal receptor)

[2] = molecular target: T2, 5-HT1A receptor (Homo sapiens, UniProt P08908); test: cAMP-Glo assay of 5-HT1A receptor modulation, +5-HT1A (CHO-K1/5-HT1A/Ga15) vs -5-HT1A (CHO-K1/Ga15) cells; type: cell-based; design: dose or concentration left out as unconfirmed; details: +5-HT1A vs -5-HT1A cell cultures stimulated with forskolin, increasing ligand concentrations
T2 construct: host or cells: CHO-K1 (co-expressing Ga15)
T2 sequence (P08908 1-422): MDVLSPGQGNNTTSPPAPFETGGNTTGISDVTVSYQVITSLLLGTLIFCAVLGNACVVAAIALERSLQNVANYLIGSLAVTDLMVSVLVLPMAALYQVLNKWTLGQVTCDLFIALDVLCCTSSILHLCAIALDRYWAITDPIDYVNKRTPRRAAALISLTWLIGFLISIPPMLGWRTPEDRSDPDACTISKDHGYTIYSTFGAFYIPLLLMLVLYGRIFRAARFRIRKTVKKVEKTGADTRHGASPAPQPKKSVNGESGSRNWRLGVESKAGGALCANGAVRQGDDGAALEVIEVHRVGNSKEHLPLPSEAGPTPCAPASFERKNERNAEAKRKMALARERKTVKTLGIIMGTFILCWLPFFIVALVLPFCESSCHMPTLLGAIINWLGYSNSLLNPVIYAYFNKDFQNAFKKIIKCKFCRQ

[3] = molecular target: GABAA (Homo sapiens, UniProt P14867+P18507+P47870); type: cell-based; details: ion channel
[4] = Mouse pharmacokinetic (PK) study, parent compound and psilocin metabolite in plasma; type: in vivo, C57Bl/6 mice
From the text: Briefly, the procedure was as follows. […] 19, 2022.

[5] = administered compound itself in plasma, 1 mg/kg i.v., individual animals, 1 mg/kg

Chain of GABAA (P14867 28-456): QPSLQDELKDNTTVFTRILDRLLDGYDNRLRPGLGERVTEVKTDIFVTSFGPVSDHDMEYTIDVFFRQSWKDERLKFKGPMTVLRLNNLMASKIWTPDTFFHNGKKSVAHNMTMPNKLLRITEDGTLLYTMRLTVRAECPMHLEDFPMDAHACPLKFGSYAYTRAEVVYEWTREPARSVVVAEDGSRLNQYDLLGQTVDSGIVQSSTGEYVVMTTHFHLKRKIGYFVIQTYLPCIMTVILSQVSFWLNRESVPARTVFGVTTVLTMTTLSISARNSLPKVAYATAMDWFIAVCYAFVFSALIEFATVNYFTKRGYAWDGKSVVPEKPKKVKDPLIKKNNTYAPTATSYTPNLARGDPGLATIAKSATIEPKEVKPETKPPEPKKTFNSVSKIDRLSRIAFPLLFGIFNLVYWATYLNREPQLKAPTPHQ
Chain of GABAA (P47870 26-512): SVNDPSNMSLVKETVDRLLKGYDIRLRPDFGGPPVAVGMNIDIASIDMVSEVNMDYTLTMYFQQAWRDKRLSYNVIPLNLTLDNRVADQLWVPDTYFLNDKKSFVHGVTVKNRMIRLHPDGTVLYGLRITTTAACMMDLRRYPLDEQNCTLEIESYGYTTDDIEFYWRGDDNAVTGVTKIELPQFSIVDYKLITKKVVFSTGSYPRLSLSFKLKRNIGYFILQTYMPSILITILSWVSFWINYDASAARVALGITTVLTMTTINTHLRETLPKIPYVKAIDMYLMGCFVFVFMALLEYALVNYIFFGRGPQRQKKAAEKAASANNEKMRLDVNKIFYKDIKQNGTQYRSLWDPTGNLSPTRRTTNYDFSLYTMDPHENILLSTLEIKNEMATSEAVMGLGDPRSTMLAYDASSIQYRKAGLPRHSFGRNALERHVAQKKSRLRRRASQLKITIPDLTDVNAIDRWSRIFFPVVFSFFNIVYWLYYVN
Chain of GABAA (P18507 40-475): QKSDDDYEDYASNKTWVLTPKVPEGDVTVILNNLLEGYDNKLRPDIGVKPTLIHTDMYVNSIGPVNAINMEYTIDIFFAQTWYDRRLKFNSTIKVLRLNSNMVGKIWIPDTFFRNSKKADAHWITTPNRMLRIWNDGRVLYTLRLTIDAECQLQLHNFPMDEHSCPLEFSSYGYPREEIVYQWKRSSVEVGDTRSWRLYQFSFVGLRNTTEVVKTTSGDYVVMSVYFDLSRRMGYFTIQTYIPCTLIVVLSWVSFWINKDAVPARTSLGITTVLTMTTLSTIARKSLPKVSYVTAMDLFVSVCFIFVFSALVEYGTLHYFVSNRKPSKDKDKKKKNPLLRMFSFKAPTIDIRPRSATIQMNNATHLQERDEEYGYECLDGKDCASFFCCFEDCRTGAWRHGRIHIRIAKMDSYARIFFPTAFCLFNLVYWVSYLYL
T1 sequence (P35363 whole entry): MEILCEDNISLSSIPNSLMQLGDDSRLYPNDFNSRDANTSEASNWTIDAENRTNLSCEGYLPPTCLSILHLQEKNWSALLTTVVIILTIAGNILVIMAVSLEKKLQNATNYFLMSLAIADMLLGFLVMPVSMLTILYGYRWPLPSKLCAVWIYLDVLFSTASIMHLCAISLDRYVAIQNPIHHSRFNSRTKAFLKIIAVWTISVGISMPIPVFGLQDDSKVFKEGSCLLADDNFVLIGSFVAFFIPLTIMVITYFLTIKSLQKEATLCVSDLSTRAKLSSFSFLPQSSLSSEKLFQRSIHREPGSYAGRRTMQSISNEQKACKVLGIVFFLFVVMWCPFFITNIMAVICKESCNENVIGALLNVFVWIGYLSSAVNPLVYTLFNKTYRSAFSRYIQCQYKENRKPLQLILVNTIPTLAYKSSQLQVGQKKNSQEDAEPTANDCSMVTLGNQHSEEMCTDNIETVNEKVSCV

Question: Which “Incidences of Head Twitch Response (HTR)” value [1] does the source give for CN(C)CCc1c[nH]c2cccc(OC(=O)c3cccc4c3OCCO4)c12 [C(XX)] here?
Answer: The value was “Elevated incidences of HTR”.

Question: What about the “5-HT1A receptor modulation (reduction of cAMP levels)” value [2] of the same molecule?
Answer: Its value is “significant receptor modulation”.

Question: What about the IC50 ([3]; blocker (BL)) of the same molecule?
Answer: Its IC50 is over 100 µM.

Question: And the EC50 ([3]; opener (OP))?
Answer: Its EC50 is over 100 µM.

Question: And the “Plasma concentration of C(XX)” value ([4]; 1 mg/kg i.v. C(XX), 5 min, individual animals)?
Answer: The value was 152 ng/mL and 105 ng/mL.

Question: What about the “Plasma concentration of C(XX)” value ([4]; 1 mg/kg i.v. C(XX), 0.25 h, individual animals) of the same molecule?
Answer: Its value is 84.7 ng/mL and 60.3 ng/mL.

Question: What about the “Plasma concentration of C(XX)” value ([4]; 1 mg/kg i.v. C(XX), 0.5 h, individual animals) of the same molecule?
Answer: Its value is 37.9 ng/mL and 32.1 ng/mL.

Question: What about the “Plasma concentration of C(XX)” value ([4]; 1 mg/kg i.v. C(XX), 1 h, individual animals) of the same molecule?
Answer: The value was 8.13 ng/mL and 8.22 ng/mL.

Question: And the “Plasma concentration of C(XX)” value ([4]; 1 mg/kg i.v. C(XX), 2 h, individual animals)?
Answer: The value was 1.03 ng/mL and 1.14 ng/mL.

Question: What about the “Plasma concentration of C(XX)” value ([4]; 1 mg/kg i.v. C(XX), 4 h, individual animals) of the same molecule?
Answer: Its value is 0.137 ng/mL and 0.148 ng/mL.

Question: And the “Plasma concentration of C(XX)” value ([4]; 1 mg/kg i.v. C(XX), 6 h, individual animals)?
Answer: Its value is “BLQ (BLQ denotes below the lower limit of quantitation (0.25 ng/mL).)”.

Question: What about the “Plasma concentration of psilocin” value ([4]; 1 mg/kg i.v. C(XX), 8 h, animals M49-M51) of the same molecule?
Answer: The value was “BLQ (BLQ denotes below the lower limit of quantitation (0.5 ng/mL).)”.

Question: What about the “Plasma concentration of C(XX)” value ([4]; 1 mg/kg i.v. C(XX), 8 h, individual animals) of the same molecule?
Answer: Its value is “BLQ (BLQ denotes below the lower limit of quantitation (0.25 ng/mL).) and No (2×)”.

Question: What about the “Plasma concentration of C(XX)” value ([4]; 1 mg/kg oral C(XX), 0.25 h, individual animals) of the same molecule?
Answer: Its value is 0.459 ng/mL and 0.648 ng/mL.

Question: What about the “Plasma concentration of C(XX)” value ([4]; 1 mg/kg oral C(XX), 0.5 h, individual animals) of the same molecule?
Answer: The value was 0.509 ng/mL and 0.648 ng/mL.

Question: What about the “Plasma concentration of C(XX)” value ([4]; 1 mg/kg oral C(XX), 1 h, individual animals) of the same molecule?
Answer: The value was 0.286 ng/mL and 0.199 ng/mL.

Question: What about the “Plasma concentration of C(XX)” value ([4]; 1 mg/kg oral C(XX), 2 h, individual animals) of the same molecule?
Answer: Its value is “BLQ (BLQ denotes below the lower limit of quantitation (0.25 ng/mL).)”.

Question: And the “Plasma concentration of C(XX)” value ([4]; 1 mg/kg oral C(XX), 4 h, individual animals)?
Answer: Its value is “BLQ (BLQ denotes below the lower limit of quantitation (0.25 ng/mL).)”.

Question: What about the “Plasma concentration of C(XX)” value ([4]; 1 mg/kg oral C(XX), 6 h, individual animals) of the same molecule?
Answer: Its value is “No Peak; also recorded: BLQ (BLQ denotes below the lower limit of quantitation (0.25 ng/mL).)”.

Question: What about the “Plasma concentration of C(XX)” value ([4]; 1 mg/kg oral C(XX), 8 h, individual animals) of the same molecule?
Answer: Its value is “No Peak; also recorded: BLQ (BLQ denotes below the lower limit of quantitation (0.25 ng/mL).)”.

Question: What about the “Plasma concentration of psilocin” value ([4]; 1 mg/kg oral C(XX), 24 h, animals M52-M54) of the same molecule?
Answer: The value was “BLQ (BLQ denotes below the lower limit of quantitation (0.5 ng/mL).)”.

Question: What about the “Plasma concentration of C(XX)” value ([4]; 1 mg/kg oral C(XX), 24 h, individual animals) of the same molecule?
Answer: The value was “No Peak”.

Question: What about the “Plasma concentration of C(XX)” value ([4]; 3 mg/kg oral C(XX), 0.25 h, individual animals) of the same molecule?
Answer: The value was 1.72 ng/mL and 1.93 ng/mL.

Question: What about the “Plasma concentration of C(XX)” value ([4]; 3 mg/kg oral C(XX), 0.5 h, individual animals) of the same molecule?
Answer: Its value is 1.13 ng/mL and 1.43 ng/mL.

Question: And the “Plasma concentration of C(XX)” value ([4]; 3 mg/kg oral C(XX), 1 h, individual animals)?
Answer: Its value is 0.752 ng/mL and 0.535 ng/mL.

Question: And the “Plasma concentration of C(XX)” value ([4]; 3 mg/kg oral C(XX), 2 h, individual animals)?
Answer: Its value is 0.244 ng/mL and 0.156 ng/mL.

Question: What about the “Plasma concentration of C(XX)” value ([4]; 3 mg/kg oral C(XX), 4 h, individual animals) of the same molecule?
Answer: The value was “No Peak; also recorded: BLQ (BLQ denotes below the lower limit of quantitation (0.25 ng/mL).)”.

Question: What about the “Plasma concentration of C(XX)” value ([4]; 3 mg/kg oral C(XX), 6 h, individual animals) of the same molecule?
Answer: The value was “No Peak; also recorded: BLQ (BLQ denotes below the lower limit of quantitation (0.25 ng/mL).)”.

Question: And the “Plasma concentration of C(XX)” value ([4]; 3 mg/kg oral C(XX), 8 h, individual animals)?
Answer: The value was “No Peak; also recorded: BLQ (BLQ denotes below the lower limit of quantitation (0.25 ng/mL).)”.

Question: What about the “Plasma concentration of psilocin” value ([4]; 3 mg/kg oral C(XX), 24 h, animals M55-M57) of the same molecule?
Answer: The value was “BLQ (BLQ denotes below the lower limit of quantitation (0.5 ng/mL).)”.

Question: What about the “Plasma concentration of C(XX)” value ([4]; 3 mg/kg oral C(XX), 24 h, individual animals) of the same molecule?
Answer: Its value is “No Peak”.

Question: And the “F(%)” value ([4]; 3 mg/kg oral, no footnote on basis (Table 36B), individual animals)?
Answer: The value was 1.08% and 0.962%.

Question: What about the “Plasma concentration of C(XX)” value ([4]; 10 mg/kg oral C(XX), 0.25 h, individual animals) of the same molecule?
Answer: The value was 2.99 ng/mL and 9.12 ng/mL and 10.3 ng/mL.

Question: And the “Plasma concentration of C(XX)” value ([4]; 10 mg/kg oral C(XX), 0.5 h, individual animals)?
Answer: Its value is 2.79 ng/mL and 3.87 ng/mL and 5.79 ng/mL.

Question: And the “Plasma concentration of C(XX)” value ([4]; 10 mg/kg oral C(XX), 1 h, individual animals)?
Answer: The value was 1.69 ng/mL and 2.74 ng/mL.

Question: And the “Plasma concentration of C(XX)” value ([4]; 10 mg/kg oral C(XX), 2 h, individual animals)?
Answer: Its value is 0.707 ng/mL and 0.533 ng/mL and 1.08 ng/mL.

Question: What about the “Plasma concentration of C(XX)” value ([4]; 10 mg/kg oral C(XX), 4 h, individual animals) of the same molecule?
Answer: Its value is “BLQ (BLQ denotes below the lower limit of quantitation (0.25 ng/mL).) and 0.302 ng/mL”.

Question: And the “Plasma concentration of C(XX)” value ([4]; 10 mg/kg oral C(XX), 6 h, individual animals)?
Answer: Its value is 0.524 ng/mL and BLQ (BLQ denotes below the lower limit of quantitation (0.25 ng/mL).) and 0.196 ng/mL.

Question: What about the “Plasma concentration of C(XX)” value ([4]; 10 mg/kg oral C(XX), 8 h, individual animals) of the same molecule?
Answer: Its value is “BLQ (BLQ denotes below the lower limit of quantitation (0.25 ng/mL).) and 0.185 ng/mL”.

Question: And the “Plasma concentration of psilocin” value ([4]; 10 mg/kg oral C(XX), 24 h, animals M58-M60)?
Answer: Its value is “BLQ (BLQ denotes below the lower limit of quantitation (0.5 ng/mL).)”.

Question: And the “Plasma concentration of C(XX)” value ([4]; 10 mg/kg oral C(XX), 24 h, individual animals)?
Answer: The value was “No Peak”.

Question: What about the AUC0-inf [4, 5] of the same molecule?
Answer: The AUC0-inf was 62.5 ng·h/mL and 48.1 ng·h/mL.

Question: And the AUC0-inf/Dose [4, 5]?
Answer: Its AUC0-inf/Dose is 48.3 kg·ng·h/mL/mg and 62.5 kg·ng·h/mL/mg and 48.1 kg·ng·h/mL/mg.

Question: And the AUC0-tlast [4, 5]?
Answer: Its AUC0-tlast is 62.4 ng·h/mL and 48.0 ng·h/mL.

Question: What about the AUC0-tlast/Dose [4, 5] of the same molecule?
Answer: The AUC0-tlast/Dose was 48.1 kg·ng·h/mL/mg and 62.4 kg·ng·h/mL/mg and 48.0 kg·ng·h/mL/mg.

Question: And the “Apparent t1/2” value [4, 5]?
Answer: The value was 31.7 min and 32.2 min.

From patent US12065404B2, “C4-carboxylic acid-substituted tryptamine derivatives and methods of using” (priority 2022, dated 2024)
